Assay results reported in patent publication US20260273107A1, “COMPOUND PHARMACEUTICAL PREPARATION CONTAINING OIL COMPONENT COMPRISING POLYOXYETHYLENE STRUCTURE” (CHUGAI SEIYAKU KABUSHIKI KAISHA, priority 2022, published 2026).
In brackets after ≈: the same amount, converted by molar mass. Bridge positions count the residues as written; N and C are the ends. Square brackets hold non-standard residues; d marks the D form. Peptide text beside a SMILES is read from it. * marks the point of attachment. hPhe(3,5-F2-4-CF3) = N[C@@H](CCc1cc(F)c(C(F)(F)F)c(F)c1)C(=O)O; hPhe(3-Cl-4-CF3) = N[C@@H](CCc1ccc(C(F)(F)F)c(Cl)c1)C(=O)O; NMePhe(4-Me) = CN[C@@H](Cc1ccc(C)cc1)C(=O)O; NMeGly(cPent) = CN[C@H](C(=O)O)C1CCCC1; NMeCha = CN[C@@H](CC1CCCCC1)C(=O)O; Hyp = O=C(O)[C@@H]1C[C@@H](O)CN1; NMeI = CC[C@H](C)[C@H](NC)C(=O)O; NMeD = CN[C@@H](CC(=O)O)C(=O)O; NMeL = CN[C@@H](CC(C)C)C(=O)O; NMeA = CN[C@@H](C)C(=O)O; Piperidide = C1CCN(*)CC1; Ac5c = NC1(C(=O)O)CCCC1; Aze = O=C(O)[C@@H]1CCN1; Sar = CNCC(=O)O

Tests used:
[1] = Evaluation of Caco-2 membrane permeability; format: in vitro ADME; conditions: human, Apical FaSSIF/HBSS pH 6.0 to Basal HBSS 4% BSA pH 7.4, 180 minutes, after 18 to 24 hours preincubation, read-out: Caco2 (Papp)
Method: The permeability coefficient (Caco-2 Papp (cm/sec)) is calculated using a numerical expression 1.
[formula] • where dQ/dt is the permeation rate of the drug (amount of drug appearing on the Basal side per unit time), S is the total cell surface area, and C1 (0) is the concentration of drug added on the Apical side.
Caco-2 cells were cultured on 96-well Transwell for 3 weeks, then DMEM, FaSSIF (1% DMSO), and the compound were added to the Apical side, DMEM was added to the Basal side, and the cells were preincubated under 5% CO2 at 37° C. with shaking at 80 rpm for 18 to 24 hours. After the preincubation, the preincubation solutions on the Apical side and Basal side were sucked off and washed, a FaSSIF/HBSS buffer solution (1% DMSO) (pH 6.0) containing the compound was added to the Apical side, a HBSS buffer solution (4% BSA) (pH 7.4) was added to the Basal side, and measurement of membrane permeability was started. Each well was shaken under 5% CO2 at 37° C. and 80 rpm, and at 180 minutes after the start of shaking, a sample on the Basal side was collected, and the permeation amount was measured by LC/MS. From the permeation amount, the membrane permeability coefficient (Papp) was calculated. Note that the description “Caco-2 (cm/sec)” in the column in the table herein is used synonymously with “Papp (cm/sec)”.

[2] = Solubility of cyclic peptide compound in 50 mM phosphate buffer solution (pH 6.5), 37° C. (Example 3-3); format: physicochemical; conditions: shaking 22 to 24 hours, read-out: solubility in 50 mM phosphate buffer solution (PPB)
Method: Evaluation of the solubility of the cyclic peptide compound was performed. To lyophilized powder of the compound, a 50 mM phosphate buffer solution (PPB: Phosphate buffer, pH 6.5) was added, and after shaking (at 37° C., 1800 rpm, for 22 to 24 hours), the mixed solution was filtered through a filter, and the compound concentration of the filtrate was measured by LC/MS/MS. Solubility was calculated from the measured compound concentration. The solubilities of the compounds 3, 4, 6, 7, and 8 were 11 μg/mL, 1 μg/mL, 1 μg/mL, 15 μg/mL, and 5 μg/mL, respectively.

[3] = Solubility in aqueous solution containing 0.3% or 1% Cremophor EL (Example 3-3); format: physicochemical; conditions: 25° C., 22 to 24 hours
Method: Evaluation of the solubility of the cyclic peptide compound in the presence of a surfactant was performed. To lyophilized powder of the compound, an aqueous solution containing 0.3% or 1% Cremophor EL (CreEL) was added, and after shaking (at 25° C., 1000 rpm, for 22 to 24 hours), the mixed solution was filtered through a filter, and the compound concentration of the filtrate was measured by LC/UV. Solubility (μg/mL) was calculated from the measured compound concentration.

[4] = 0.3% Cremophor EL aqueous solution, read-out: solubility, 0.3% Cremophor EL
[5] = 1% Cremophor EL aqueous solution, read-out: solubility, 1% Cremophor EL

| Compound | Papp A→B at 180 min [1] [×10⁻⁶ cm/s] | solubility [2] [µg/mL] | solubility [3, 4] [µg/mL] | solubility [3, 5] [µg/mL] |
| --- | --- | --- | --- | --- |
| CC[C@H](C)[C@@H]1NC(=O)[C@H](CC(C)C)N(C)C(=O)C[C@@H](C(=O)N2CCCCC2)N(C)C(=O)[C@H](C2CCCC2)N(C)C(=O)C2(CCCC2)NC(=O)[C@@H]2CCCN2C(=O)[C@H](CCc2ccc(C(F)(F)F)c(Cl)c2)NC(=O)CN(C)C(=O)[C@H](CC2CCCCC2)N(C)C(=O)[C@@H]2CCN2C(=O)[C@H](C)N(C)C1=O [Compound 6] ([NMeL]I[NMeA][Aze][NMeCha][Sar][hPhe(3-Cl-4-CF3)]P[Ac5c][NMeGly(cPent)][NMeD]-Piperidide; lactam N-11) | 0.61 | 1 (≈ 0.688 µM) | 434 (≈ 298 µM) | 1450 (≈ 999 µM) |
| CCO[C@@H]1C[C@H]2C(=O)NC3(CCCC3)C(=O)N(C)[C@@H](C3CCCC3)C(=O)N(C)[C@H](C(=O)N(C)C)CC(=O)N(C)[C@@H](CC(C)C)C(=O)N[C@@H]([C@@H](C)CC)C(=O)N(C)[C@@H](C)C(=O)N3CC[C@H]3C(=O)N(C)[C@@H](CC3CCCCC3)C(=O)N(C)CC(=O)N[C@@H](CCc3cc(F)c(C(F)(F)F)c(F)c3)C(=O)N2C1 [Compound 8] ([NMeL]I[NMeA][Aze][NMeCha][Sar][hPhe(3,5-F2-4-CF3)][Hyp](Et)[Ac5c][NMeGly(cPent)][NMeD]-NMe2; lactam N-11) | 2.39 | 5 (≈ 3.43 µM) | 356 (≈ 244 µM) | 1340 (≈ 916 µM) |

Results, then the compound that gave them:

| Papp A→B at 180 min [1] [×10⁻⁶ cm/s] | solubility [2] [µg/mL] | solubility [3, 4] [µg/mL] | solubility [3, 5] [µg/mL] | Compound |
| --- | --- | --- | --- | --- |
| 2.96 | 15 (≈ 10.6 µM) | 492 (≈ 349 µM) | 1640 (≈ 1170 µM) | CC[C@H](C)[C@@H]1NC(=O)[C@H](CC(C)C)N(C)C(=O)C[C@@H](C(=O)N(C)C)N(C)C(=O)[C@H]([C@@H](C)CC)N(C)C(=O)C2(CCCC2)NC(=O)[C@@H]2CCCN2C(=O)[C@H](CCc2ccc(C(F)(F)F)c(Cl)c2)NC(=O)CN(C)C(=O)[C@H](Cc2ccc(C)cc2)N(C)C(=O)[C@@H]2CCN2C(=O)[C@H](C)N(C)C1=O [Compound 7] ([NMeL]I[NMeA][Aze][NMePhe(4-Me)][Sar][hPhe(3-Cl-4-CF3)]P[Ac5c][NMeI][NMeD]-NMe2; lactam N-11) |
| 0.14 | – | 450 (≈ 291 µM) | 1510 (≈ 978 µM) | CC[C@H](C)[C@@H]1NC(=O)[C@H](CC(C)C)N(C)C(=O)C[C@@H](C(=O)N2CCOCC2)N(C)C(=O)[C@H](C2CCCC2)N(C)C(=O)C2(CCCC2)NC(=O)[C@@H]2CCCN2C(=O)[C@H](CCc2ccc(C(F)(F)F)c(Cl)c2)NC(=O)CN(C)C(=O)[C@H](Cc2ccc(C(F)(F)F)cc2)N2CCCCC[C@@H](C2=O)N(C)C(=O)CN(C)C1=O [Compound 9] |
| 0.7 | – | 583 (≈ 387 µM) | 1680 (≈ 1120 µM) | CCO[C@@H]1C[C@H]2C(=O)NC3(CCC3)C(=O)N(C)[C@@H](C3CCCC3)C(=O)N(C)[C@H](C(=O)N(C)C)CC(=O)N(C)[C@@H](CC)C(=O)N[C@@H]([C@@H](C)CC)C(=O)N(C)CC(=O)N(C)[C@H]3C/C=C\CCN(C3=O)[C@@H](Cc3ccc(C(F)(F)F)cc3)C(=O)N(C)CC(=O)N[C@@H](CCc3cc(F)c(C(F)(F)F)c(F)c3)C(=O)N2C1 [Compound 10] |
